Read-outs that look alike come from different tables or passages of the source.
System: cancer cell lines from the cancer cell line encyclopedia (CCLE)
Test: Cell line profiling (CLiP) proliferation experiment
Format: cell-based
Conditions: Homo sapiens; for IC50: read-out: Crossing Point; for EC50: read-out: Inflection Point
Description: Compound profiling experiment and data analysis was performed as previously described. Data was imported and plotted using the Tibco Spotfire DXP application. Lines were categorized as sensitive, intermediate and refractory as follows: Amax<-40 & Inflection Point <2 ~ Sensitive, Amax>-20 & Inflection Point >10 ~ Refractory, all else were called Intermediate. Cancer Cell line HG-U133 Plus 2 data was processed and normalized as described. […] Five sets of refractory cell lines were generated from the pool of refractory cell lines trying to match the lineage composition of the set of sensitive cell lines. The limma package was used as previously described to perform the statistical comparison.

[1] = NCI-H1666, cell line NCI-H1666 (lung)
[2] = NCI-H1703, cell line NCI-H1703 (lung)
[3] = NCI-H1734, cell line NCI-H1734 (lung)
[4] = NCI-H1793, NCI-H1793, lung, adenocarcinoma
[5] = NCI-H2122, NCI-H2122, lung, adenocarcinoma
[6] = NCI-H2405, NCI-H2405, lung, adenocarcinoma
[7] = NCI-H3255, NCI-H3255, lung, adenocarcinoma
[8] = NUGC-4, NUGC-4, stomach, signet_ring_adenocarcinoma
[9] = OC-314, OC 314, ovary, serous_carcinoma
[10] = OCI-LY19, OCI-LY-19, haematopoietic_and_lymphoid_tissue, diffuse_large_B_cell_lymphoma
[11] = P12-Ichikawa, P12-ICHIKAWA cells
[12] = P12-Ichikawa, cell line P12-ICHIKAWA

`CC(C)[C@@]12C[C@@H](O)[C@@](C)(O1)[C@@H]1CC[C@@H](C)[C@H]1[C@@H]2OC(=O)/C=C/c1ccccc1` [Englerin B] showed an IC50 [1] of 22.4 µM, an EC50 [1] of 22.8 µM and an IC50 (NCI-H1693, cell line NCI-H1693 (lung)) of over 30 µM. It also gave an IC50 (NCI-H1693, cell line NCI-H1693) of over 30 µM, an IC50 [2] of 14.9 µM and an EC50 [2] of 23.1 µM. It also gave an IC50 [3] of 19.6 µM, an EC50 [3] of 19.6 µM and an IC50 (NCI-H1792, NCI-H1792, lung, adenocarcinoma) of 24.9 µM. For the same compound, the IC50 (NCI-H1792, cell line NCI-H1792 (lung, adenocarcinoma)) was 24.9 µM, the IC50 [4] was over 30 µM and the EC50 [4] was 22.5 µM. The IC50 (NCI-H1793, cell line NCI-H1793) was over 30 µM, the IC50 (NCI-H1944, NCI-H1944, lung, adenocarcinoma) was 15.8 µM and the IC50 (NCI-H1944, cell line NCI-H1944) was 15.8 µM. The IC50 (NCI-H1975, NCI-H1975, lung, adenocarcinoma) was over 30 µM, the IC50 (NCI-H1975, NCI-H1975 cells) was over 30 µM and the IC50 [5] was over 30 µM. It also gave an EC50 [5] of 10.6 µM, an IC50 (NCI-H2122, cell line NCI-H2122) of over 30 µM and an IC50 (NCI-H2126, NCI-H2126, lung, adenocarcinoma) of over 30 µM. For the same compound, the IC50 (NCI-H2126, NCI-H2126 cells) was over 30 µM, the IC50 (NCI-H2170, NCI-H2170, lung, squamous_cell_carcinoma) was over 30 µM and the IC50 (NCI-H2170, cell line NCI-H2170) was over 30 µM. It also gave an IC50 [6] of over 30 µM, an EC50 [6] of 14.6 µM and an IC50 (NCI-H2405, cell line NCI-H2405) of over 30 µM. For the same compound, the IC50 (NCI-H2452, NCI-H2452, pleura, NS) was over 30 µM, the IC50 (NCI-H2452, cell line NCI-H2452) was over 30 µM and the IC50 [7] was 27 µM. For the same compound, the EC50 [7] was 27 µM, the IC50 (NCI-H3255, NCI-H3255 cells) was 27 µM and the EC50 (NCI-H3255, NCI-H3255 cells) was 27 µM. The IC50 (NUGC-3, NUGC-3, stomach, NS) was over 30 µM, the IC50 (NUGC-3, NUGC-3 cells) was over 30 µM and the IC50 [8] was 22 µM. It also gave an EC50 [8] of 15.9 µM, an EC50 (NUGC-4, NUGC-4 cells) of 15.9 µM and an IC50 (OAW-42, OAW42, ovary, adenocarcinoma) of over 30 µM. The IC50 (OAW-42, OAW42 cells) was over 30 µM, the IC50 [9] was over 30 µM and the EC50 [9] was 14.9 µM. For the same compound, the IC50 (OC-314, OC 314 cells) was over 30 µM, the EC50 (OC-314, OC 314 cells) was 14.9 µM and the IC50 (OCI-AML2, OCI-AML2, haematopoietic_and_lymphoid_tissue, acute_myeloid_leukaemia) was 16.1 µM. The IC50 (OCI-AML-3, OCI-AML3, haematopoietic_and_lymphoid_tissue, acute_myeloid_leukaemia) was 18.2 µM, the IC50 [10] was 14.2 µM and the EC50 [10] was 14.8 µM. For the same compound, the EC50 (OCI-LY19, OCI-LY-19 cells) was 14.8 µM, the IC50 (OCI-Ly3, OCI-LY3, haematopoietic_and_lymphoid_tissue, diffuse_large_B_cell_lymphoma) was 13.3 µM and the IC50 (OE19, OE19, oesophagus, adenocarcinoma) was 20.4 µM. It also gave an IC50 (OS-RC-2, OS-RC-2 cells) of over 30 µM, an EC50 (OS-RC-2, OS-RC-2 cells) of 11.5 µM and an IC50 (OS-RC-2, cell line OS-RC-2) of over 30 µM. The EC50 (OS-RC-2, cell line OS-RC-2) was 11.5 µM, the IC50 (OV-90, OV-90 cells) was over 30 µM and the IC50 (OV-90, cell line OV-90) was over 30 µM. It also gave an IC50 (OVCAR-4, cell line OVCAR-4) of 29.6 µM, an IC50 (OVCAR-8, cell line OVCAR-8) of 20.7 µM and an EC50 (OVSAHO, OVSAHO cells) of 18.1 µM. It also gave an IC50 (OVSAHO, cell line OVSAHO) of 23.6 µM, an EC50 (OVSAHO, cell line OVSAHO) of 18.1 µM and an IC50 (P3HR-1, cell line P3HR-1) of 25.4 µM. The IC50 [11] was 19.1 µM, the EC50 [11] was 19.1 µM and the IC50 [12] was 19.1 µM. The EC50 [12] was 19.1 µM, the IC50 (P31-FUJ, cell line P31/FUJ) was 19.6 µM and the IC50 (PANC-1, cell line PANC-1) was 23.8 µM. The IC50 (PANC-03-27, cell line Panc 03.27) was 21.1 µM, the IC50 (PC-14, cell line PC-14) was 21.4 µM and the EC50 (PF-382, PF-382 cells) was 13.1 µM. For the same compound, the IC50 (PF-382, cell line PF-382) was 16.6 µM, the EC50 (PF-382, cell line PF-382) was 13.1 µM and the IC50 (PLC-PRF-5, PLC/PRF/5 (liver)) was 14.5 µM. It also gave an IC50 (PLC-PRF-5, cell line PLC/PRF/5) of 14.5 µM, an IC50 (PSN1, cell line PSN1) of 29.7 µM and an IC50 (Panc 02.03, Panc 02.03 cells) of over 30 µM. The IC50 (Panc 02.03, cell line Panc 02.03) was over 30 µM, the IC50 (Panc 04.03, Panc 04.03 cells) was over 30 µM and the IC50 (Panc 04.03, cell line Panc 04.03) was over 30 µM. The EC50 (Panc1005, Panc 10.05 cells) was 10.9 µM, the IC50 (Panc1005, cell line Panc 10.05) was 13 µM and the EC50 (Panc1005, cell line Panc 10.05) was 10.9 µM. The IC50 (RD, RD cells) was over 30 µM, the IC50 (REH, Reh cells) was 21.5 µM and the EC50 (REH, Reh cells) was 21.5 µM. It also gave an IC50 (RPMI 8402, RPMI-8402 cells) of 19.1 µM, an IC50 (RPMI 8402, cell line RPMI-8402) of 19.1 µM and an IC50 (RPMI-7951, cell line RPMI-7951) of 19.7 µM. It also gave an EC50 (RPMI-7951, cell line RPMI-7951) of 13.7 µM and an IC50 (RPMI-8226, cell line RPMI 8226) of 16.9 µM.

From article PMC4476799, “Englerin A Agonizes the TRPC4/C5 Cation Channels to Inhibit Tumor Cell Line Proliferation” (PLoS ONE, 2015)
